According to patent US20130072506A1, “6,8-DISUBSTITUTED PURINE COMPOSITIONS” (priority 2011, published 2013):

Key:
[1] = test system: cytokinin-dependent tobacco callus; experiment: Growth of cytokinin-dependent tobacco callus (plant cell division); type: cell-based, Nicotiana tabacum L. cv. Wisconsin 38; conditions: for Activity (%): at concentration with highest activity, activity of kinetin set at 100%
Method: The effect on plant cell division. Cytokinin-dependent tobacco callus Nicotiana tabacum L. cv. Wisconsin 38 was maintained at 25° C. in darkness on modified MS medium, containing 4 μmol/l nicotinic acid, 2.4 μmol/l pyridoxine hydrochloride, 1.2 μmol/l thiamine, 26.6 μmol/l glycine, 1.37 μmol/l glutamine, 1.8 μmol/1 myo-inositol, 30 g/l of sucrose, 8 g/l of agar, 5.37 μmol/l NAA and 0.5 μmol/l BAP. Subcultivation was carried out every three weeks. Fourteen days before the bioassay, the callus tissue was transferred to the media without BAP. Biological activity was determined from the increase in fresh callus weight after four weeks of cultivation. Five replicates were prepared for each cytokinin concentration and the entire test was repeated twice. From the obtained data, the concentration with highest activity was selected for each compound tested. Relative activity at this concentration was calculated (see Table 4 below).
The cytokinins to be tested were dissolved in dimethylsulfoxide (DMSO) and the solution brought up to 10^−3M with distilled water.

[2] = test system: T-lymphoblastic leukemia cell line CEM; experiment: In vitro cytotoxic activity (metabolisation of Calcein AM); type: cell-based, human; conditions: Homo sapiens, CCRF-CEM, CEM cells, 72 hours incubation, called GI50, read-out: Cell line tested/IC50 (μmol/L) CEM
Description: (§1) In vitro Cytotoxic Activity (Metabolisation of Calcein AM). Because toxic compounds negatively influence metabolic processes of cells, many standard cytotoxicity assays are based on measurement of metabolisation rate of various artificial substrates. Resulting product is then quantified, for example, by means of spectrometry. The assays can be easily modified for use in 96-well plates. For evaluation of cytotoxicity of the 6,8-disubstituted purines of this invention, a microtiter assay based on quantification of metabolisation of Calcein AM was used. The assay is widely used in drug screening programs and in chemosensitivity testing. In live cells, Calcein AM is enzymatically hydrolysed and accumulation of resulting calcein is manifested by green fluorescence.
(§2) The following human cell lines were used for routine screening of the compounds: normal diploid fibroblasts BJ, T-lymphoblastic leukemia cell line CEM, promyelocytic leukemia cell line HL-60, erytroid leukemia cell line K-562, breast carcinoma cell line MCF-7, osteosarcoma cell line HOS and melanoma cell line G-361. The cells were maintained in Nunc/Corning 80 cm^2 plastic tissue culture flasks and cultured in cell culture medium (DMEM with 5 g/l glucose, 2 mM glutamine, […] penicillin, 100 mmg/ml streptomycin, 10% fetal calf serum and sodium bicarbonate).
(§3) The cell suspensions were prepared and diluted according to the particular cell type and the expected target cell density (2.500-30.000 cells per well based on cell growth characteristics) and pipetted (80 μl) into 96-well plates. Inoculates were allowed a pre-incubation period of 24 hours at 37° C. and 5% CO2 for stabilization. Tested compound was added in total volume of […] of water at time zero. Usually, test compound was evaluated at six 3-fold dilutions. In routine testing, the highest concentration tested was 100 μM, but it could have been adjusted because of limited solubility of a compound. All drug concentrations were tested in triplicates.
(§4) Incubations of cells with the test compounds lasted for 72 hours at 37° C., in 5% CO2 atmosphere and 100% humidity. At the end of incubation period Calcein AM in PBS was added into final concentration of 1 μg/ml. After another 1 hour of incubation fluorescence (FD) was measured with the Labsystem FIA Reader Fluoroscan Ascent (UK). Growth inhibition (GI) was estimated using the following equitation: GI=(mean FDdrug exposed wells−mean FDblank)/(mean FDcontrol wells−mean FDblank)×100%. The GI50 value, the drug concentration causing 50% reduction of Calcein AM conversion, was calculated from the obtained dose response curves.

[3] = test system: osteosarcoma cell line HOS; experiment: as above; type: cell-based, human; conditions: Homo sapiens, HOS cells, 72 hours incubation, called GI50, read-out: Cell line tested/IC50 (μmol/L) HOS
Description: as §1, §2, §3, §4

[4] = test system: erytroid leukemia cell line K-562; experiment: as above; type: cell-based, human; conditions: Homo sapiens, K562, K-562 cells, 72 hours incubation, called GI50, read-out: Cell line tested/IC50 (μmol/L) K-562
Description: as §1, §2, §3, §4

melanoma cell line G-361 = experiment: as above; type: cell-based, human; conditions: Homo sapiens, G-361 cells, 72 hours incubation, called GI50, read-out: Cell line tested/IC50 (μmol/L) G-361
Description: as §1, §2, §3, §4

[5] = test system: breast carcinoma cell line MCF-7; experiment: as above; type: cell-based, human; conditions: Homo sapiens, MCF7 cells, 72 hours incubation, called GI50, read-out: Cell line tested/IC50 (μmol/L) MCF7
Description: as §1, §2, §3, §4

[6] = test system: normal diploid fibroblasts BJ; experiment: as above; type: cell-based, human; conditions: Homo sapiens, BJ cells, 72 hours incubation, called GI50, read-out: Cell line tested/IC50 (μmol/L) BJ
Description: as §1, §2, §3, §4

[7] = test system: Human diploid fibroblast BJ; experiment: In vitro cytotoxic activity (metabolisation of MTT); type: cell-based; conditions: 72 hours, BJ passage 18-22
Method: In vitro Cytotoxic Activity (metabolisation of Mtt). MTT ([…]) assay is a standard colorimetric assay for evaluation of cytotoxicity. Mitochondrial dehydrogenase activity converts yellow MTT into violet formazan which is measured by means of spectrometry.
Human diploid fibroblast BJ (passage 18-22) were seeded into 96-well plate (5.000 cells per well). After 6 hours cultivation medium (DMEM with 5 g/l glucose, 2 mM glutamine, 100 U/ml penicillin, 100 mmg/ml streptomycin, 10% fetal calf serum and sodium bicarbonate) was replaced with the cultivation medium containing test compounds in concentration range of 0-200 μM. Highest concentration was adjusted if the solubility of the compound was limiting. Every concentration was tested in pentaplicate. MTT was added to the cells after 72 hours incubation (final concentration 0.5 mg/ml) and incubation continued for another 3 hours. MTT was solubilised by DMSO and absorbance at 570 nm was measured. Growth inhibition (GI) was estimated using the following equitation: GI=(mean A drug exposed wells−mean Ablank/mean Acontrol wells−mean Ablank)×100%. The GI20 value, the drug concentration causing 20% decrease in mitochondrial dehydrogenase activity, was calculated from the obtained dose response curves.

[8] = test system: Amaranthus caudatus cotyledon/hypocotyl explants; experiment: Amaranthus bioassay (betacyanin content); type: in vivo, Amaranthus caudatus var. atropurpurea; conditions: for Activity (%): at concentration with highest activity, activity of kinetin set at 100%; for Concentration with highest activity: betacyanin content, 48 hours in darkness
Method: Testing of Novel Compounds in Amaranthus bioassay. Standard Amaranthus bioassay was performed with several modifications. The seeds of Amaranthus caudatus var. atropurpurea were surface-sterilized in 10% N-chlorobenzene sulfonamide (w/v) for 10 min and washed 5 times in deionized water. They were placed in 14 cm Petri dishes containing paper tissues saturated with deionized water. After 72 hours of cultivation at 25° C. in darkness, the roots of the seedlings were cut off. The explants, consisting of two cotyledons and hypocotyls, were placed in 5 cm Petri dishes on two layers of filter paper soaked in 1 ml of incubation medium containing 10 μmol Na2HPO4—KH2PO4, pH 6.8, 5 μmol tyrosine and the cytokinin to be tested. There were 20 explants per dish. The procedure was carried out under a green safe light in a darkroom. After a 48 hours of incubation at 25° C. in darkness, betacyanin was extracted by freezing the explants in 4 ml 3.33 μM acetic acid. The concentration of betacyanin was determined by comparing the absorbance at 537 nm and 620 nm as follows: DA=A537nm−A620nm. From the obtained data, the concentration with highest activity was selected for each compound tested. Relative activity of the compound at this concentration was calculated (see Table 3 below). […] The values shown in Table 3 are means of five replicates and the entire test was repeated twice.
The cytokinins to be tested were dissolved in dimethylsulfoxide (DMSO) and the solution brought up to 10^−3 M with distilled water.

| melting point [°C] | SMILES | Activity (%) [1] [%] | IC50 [2] [µmol/L] | IC50 [3] [µmol/L] | IC50 [4] [µmol/L] | IC50 (melanoma cell line G-361) [µmol/L] | IC50 [5] [µmol/L] | IC50 [6] [µmol/L] | GI20 [7] [µM] | Activity (%) [8] [%] | Concentration with highest activity [8] | Concentration with highest activity ([1]; increase in fresh callus weight after four weeks) |
| --- | --- | --- | --- | --- | --- | --- | --- | --- | --- | --- | --- | --- |
| 223 to 226 | Nc1nc2ncnc(NCc3ccccc3)c2[nH]1 [Compound 83, 8-Amino-6-benzylaminopurine] | 197.08 | > 50 | > 50 | > 50 | > 50 | > 50 | > 50 | >100 |  |  |  |
|  | CC(C)=CCNc1ncnc2nc(N)[nH]c12 [Compound 87, 6-(3-methylbut-2-en-1-ylamino)-8-aminopurine] | 150.44 | > 50 | > 50 | > 50 | > 50 | > 50 | > 50 | >100 | 171.36 | 10^−4 mol/l |  |
| 196 to 198 | COc1nc2ncnc(NCc3ccco3)c2[nH]1 [Compound 120, 6-Furfurylamino-8-methoxypurine] |  | > 50 | > 50 | > 50 | > 50 | > 50 | > 50 |  |  |  |  |
|  | COc1nc2ncnc(NCc3ccccc3)c2[nH]1 [Compound 121, 6-Benzylamino-8-methoxypurine] | 129.11 | > 50 | > 50 | > 50 | > 50 | > 50 | > 50 |  | 121.15 | 10^−4 mol/l |  |
| 234 to 237 | CSc1nc2ncnc(NCc3ccccc3)c2[nH]1 [Compound 148, 6-Benzylamino-8-methylsulphanylpurine] | 109.36 |  |  |  |  |  |  |  |  |  |  |
| 243 to 247 | Oc1nc2ncnc(NCc3ccccc3)c2[nH]1 [Compound 167, 6-Benzylamino-8-hydroxypurine] |  | > 50 | > 50 | > 50 | > 50 | > 50 | > 50 |  |  |  |  |
| 187 to 189 | NCc1nc2ncnc(NCc3ccccc3)c2[nH]1 [Compound 181, 8-Aminomethyl-6-benzylaminopurine] |  | > 50 | > 50 | > 50 | > 50 | > 50 | > 50 |  |  |  |  |
|  | COC(=O)c1nc2ncnc(NCc3ccccc3)c2[nH]1 [Compound 188] | 148.91 |  |  |  |  |  |  |  | 122.51 | 10^−4 mol/l | 10^−6 mol/l |
| 230 to 232 | O=C(O)c1nc2ncnc(NCc3ccccc3)c2[nH]1 [Compound 202, 6-Benzylaminopurine-8-carboxylic acid] |  |  |  |  |  |  |  |  |  |  |  |
| 170 to 173 | NCCCNc1nc2ncnc(NCc3ccccc3)c2[nH]1 [Compound 209, 8-(3-Aminopropylamino)-6-benzylaminopurine] | 150.01 | > 50 | > 50 | > 50 | > 50 | > 50 | > 50 | >100 |  |  |  |
| 182 to 184 | OCCOc1nc2ncnc(NCc3ccco3)c2[nH]1 [Example 7 (18), 6-Furfurylamino-8-(2-hydroxyethyloxy)purine] |  |  |  |  |  |  |  |  |  |  |  |
| 246 to 249 | CC(C)=CCNc1ncnc2nc(N(C)C)[nH]c12 [Example 7 (19), 8-Dimethylamino-6-(3-methylbut-2-en-1-ylamino)purine] |  |  |  |  |  |  |  |  |  |  |  |
| 245 to 249 | C/C(=C\CNc1ncnc2nc(N(C)C)[nH]c12)CO [Example 7 (23), (E)-8-Dimethylamino-6-(4-hydroxy-3-methylbut-2-en-1-ylamino)purine] |  |  |  |  |  |  |  |  |  |  |  |
